According to patent publication US20210008177A1 (priority 2019, published 2021):
Entries after “also recorded” stand apart in the source; their conditions may differ. Read-outs that look alike come from different tables or passages of the source.

Legend:
NO = NO content in lumbar spinal cord tissue of mice after tolerance and hyperalgesia tests; conditions: lumbar spinal cord homogenate of mice after 7 days of injections, cobrotoxin of sequence ID NO.1, SD in own column
Kunming mice [1] = conditions: mouse, in vivo
Description: To evaluate the therapeutic effects elapidea neurotoxins, one of the reliable morphine induced hyperalgesia/tolerance model in mice (Elhabazi, K et al) was created, and effects of the representative EXAMPLE compounds were investigated on the model.
100 Kunming mice were subjected to tail pressure tests for 4 days to measure the mechanical pain threshold and the average pain threshold will be set as the baseline pain threshold. • i. Put the mouse gently into the restraint and put its tail under the conical tip of the pain test apparatus. Press the pedal switch, and increase the pressure on the proximal end of the tail evenly until signs of the first pain response (struggle, squeaking) occurs. Record pain-inducing pressure when pain response occurs (units: g) as the value of pain threshold. The pressure was released upon reaching 700 g with no indication of a response to avoid tissue injury. Measurements were also conducted at the middle and distal ends of the tail of the same mouse with a minimum of 30 seconds time intervals between each measurement. • ii. Put the tested mice in a cage and test the next one until every mouse in the group is tested. […] The pain threshold of the mice measured by the tail pressure test ranged from 180 g to 220 g. […]

IL-6 = IL-6 in lumbar spinal cord tissue of mice after tolerance and hyperalgesia tests (ELISA); conditions: lumbar spinal cord homogenate of mice after 7 days of injections, cobrotoxin of sequence ID NO.1, SD in own column
Kunming mice [2] = assay type: in vivo; conditions: for average pain threshold before injection, difference between physiological saline, cobrotoxin and cobrotoxin+morphine groups: day 5 through day 11
Description: 100 Kunming mice were subjected to tail pressure tests for 4 days to measure the mechanical pain threshold and the average pain threshold will be set as the baseline pain threshold. • i. Put the mouse gently into the restraint and put its tail under the conical tip of the pain test apparatus. Press the pedal switch, and increase the pressure on the proximal end of the tail evenly until signs of the first pain response (struggle, squeaking) occurs. Record pain-inducing pressure when pain response occurs (units: g) as the value of pain threshold. The pressure was released upon reaching 700 g with no indication of a response to avoid tissue injury. Measurements were also conducted at the middle and distal ends of the tail of the same mouse with a minimum of 30 seconds time intervals between each measurement. • ii. Put the tested mice in a cage and test the next one until every mouse in the group is tested. The average of the three measurements (i.e., the proximal, mid and distal ends of each mouse tail) was used as the pain threshold (g) of each mouse when all mice were subjected to a tail pressure test. • iii. In the following 3 days, all mice underwent repeated measurements of tail pressure pain threshold. • iv. […] The mice were then randomly divided into four groups: namely ‘physiological saline group’, ‘morphine group’, ‘cobrotoxin group’ and ‘cobrotoxin+morphine group’. Each group comprised of 20 mice, which is used for the hyperalgesia and tolerance test of the corresponding drugs in the group's name. Any surplus mice were excluded. • v. Lastly, each group of 20 mice was divided randomly again into two groups, with each group comprising 10 mice, as cobrotoxin of amino acid sequence ID NO.1, and cobrotoxin of amino acid sequence ID NO. 2 will be used for parallel testing
After 4 days of measurement of the mice's baseline pain threshold described in step 1, from the fifth day to the eleventh day, the measurement of pain threshold was performed before the injection. […]

NOS = NOS activity in lumbar spinal cord tissue of mice after tolerance and hyperalgesia tests; conditions: lumbar spinal cord homogenate of mice after 7 days of injections, cobrotoxin of sequence ID NO.1, SD in own column
IL-1β = IL-1β in lumbar spinal cord tissue of mice after tolerance and hyperalgesia tests (ELISA); conditions: lumbar spinal cord homogenate of mice after 7 days of injections, cobrotoxin of sequence ID NO.1, SD in own column
SD rats = conditions: rat, in vivo
Protocol: Writhing test was applied to the rats, which is a chemical method used to induce pain of the peripheral origin by injection of irritant principles like acetic acid in rats. Analgesic effect of the test compound is inferred from the decrease in the frequency of writhe.
The aforementioned four groups of rats were injected with sterile saline (NaCl 0.9% 1 ml), morphine (3 mg/kg), cobrotoxin (50 ug/kg), and cobrotoxin (25 ug/kg)+morphine (1.5 mg/kg) respectively.
Following Step1, the aforementioned four groups SD rats were injected with 1.5% acetic acid solution (1 ml/rat) again 150 and 210 minutes after the initial injection of 4 different drugs respectively.

CN1CC[C@]23c4c5ccc(O)c4O[C@H]2[C@@H](O)C=C[C@H]3[C@H]1C5 [morphine]
NO (NO): significantly higher
NO (NO; listed as Morphine): 1.61 μmol/g protein
average pain threshold one hour after injection, difference within the group between day five, eight and eleven (Kunming mice [1]): significant statistical difference
mean pain threshold one hour after injection, course within the group (tolerance) (Kunming mice [1]): significantly decreased from day 5 to day 11
IL-6 (IL-6): significantly higher
IL-6 (IL-6; listed as Morphine): 19.40 pg/mg protein
mean pain threshold before injection (hyperalgesia) (Kunming mice [2]; mouse, in vivo): significantly lower
NOS (NOS): significantly higher
NOS (NOS; listed as Morphine): 7.56 U/mg protein
IL-1β (IL-1β): significantly higher
IL-1β (IL-1β; listed as Morphine): 16.80 pg/mg protein
analgesic effect in writhing test (SD rats): lower analgesic effect; also recorded: almost no signs of any analgesic effect
number of writhing, difference within the group between 60, 150 and 210 minutes (SD rats): significant statistical difference

B1: Cobrotoxin of amino acid sequence ID No.1 (protein)
chain: LECHNQQSSQTPTTTGCSGGETNCYKKRWRDHRGYRTERGCGCPSVKNGIEINCCTTDRCNN
modifications: Naja atra or Naja kaouthia
average pain threshold before injection, difference between physiological saline, cobrotoxin and cobrotoxin+morphine groups (Kunming mice [2]; FIG. 3, cobrotoxin of sequence ID No.1): No significant statistical differences

B2: Cobrotoxin of amino acid sequence ID No.2: mktllltllv vtivcldlgy tlechnqqss qtptttgcsg getncykkrw rdhrgyrter gcgcpsvkng ieinccttdr cnn (protein)
chain: MKTLLLTLLVVTIVCLDLGYTLECHNQQSSQTPTTTGCSGGETNCYKKRWRDHRGYRTERGCGCPSVKNGIEINCCTTDRCNN
modifications: Naja atra or Naja kaouthia
notes: mktllltllv vtivcldlgy tlechnqqss qtptttgcsg getncykkrw rdhrgyrter gcgcpsvkng ieinccttdr cnn
average pain threshold before injection, difference between physiological saline, cobrotoxin and cobrotoxin+morphine groups (Kunming mice [2]; FIG. 4, cobrotoxin of sequence ID No.2): No significant statistical differences
